Source: patent US9347934B2, “Assays for identifying compounds that modulate bitter taste” (CHROMOCELL CORPORATION, priority 2011, dated 2016)
pEC50: −log10 of the molar value.

What was measured:
Format in all cases: cell-based
TAS2R48 = biological target: T1, TAS2R48 (Homo sapiens, UniProt P59542); test: Calcium fluorescence functional assay, TAS2R48 cell line; details: 20 mM tastant; cell line expressing human TAS2R48 and mouse Gα15
T1 construct: expressed in transfected cells
T1 sequence (P59542 1-299): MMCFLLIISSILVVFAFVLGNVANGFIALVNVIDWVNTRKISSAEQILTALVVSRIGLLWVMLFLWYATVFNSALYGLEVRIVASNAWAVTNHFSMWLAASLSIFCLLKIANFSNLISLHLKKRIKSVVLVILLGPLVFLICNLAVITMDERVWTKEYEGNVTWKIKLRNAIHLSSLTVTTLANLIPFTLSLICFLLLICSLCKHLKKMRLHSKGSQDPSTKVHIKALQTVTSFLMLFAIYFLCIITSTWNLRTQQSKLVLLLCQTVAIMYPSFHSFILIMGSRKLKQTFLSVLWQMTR
Description: (§1) Accordingly, each cell line of the panel expressed a human bitter taste receptor and mouse Gα15 signaling protein.
(§2) Probenecid was not included in the load solution.
(§3) After dye loading, cell plates were placed in a fluorescent plate reader (e.g., FDSS6000 (Hamamatsu, Japan)) and receptor stimulation was measured by adding 50 ul of 3× concentrated ligand/agonist stock. Fluorescence was monitored continuously for 10 s before agonist addition and for 100-250 s after stimulation with agonist.
(§4) Receptor Activation is defined as follows: % Activation=[((Maximum signal fluorescence−Minimum signal fluorescence)−(Maximum control fluorescence−Minimum control fluorescence))/(Maximum buffer fluorescence−Minimum buffer fluorescence)]*100 Functional Response=[(Maximum signal fluorescence−Minimum signal fluorescence)−(Maximum control fluorescence−Minimum control fluorescence)] • Signal Fluorescence: refers to the change in fluorescence seen with addition of ligand • Control fluorescence: refers to the change in fluorescence seen with addition of buffer (negative control) • Calcium signals from ligand and control were normalized to the basal fluorescence of the cells prior to the stimulation.
(§5) A concentration analysis was performed and EC50 values were calculated by nonlinear regression using the formula: Y=Bottom+(Top-Bottom)/(1+10^((Log EC50-X)*Hill Slope)), X=log of dose or concentration, Y=Response (increasing as X increases), Top=maximum signal, Bottom=minimum signal.

TAS2R44 = biological target: T2, TAS2R44 (Homo sapiens, UniProt P59538); test: Calcium fluorescence functional assay, TAS2R44 cell line; details: for TAS2R44 bitter taste receptor activity (changes in intracellular calcium): 20 mM tastant, cell line expressing human TAS2R44 and mouse Gα15
T2 construct: expressed in transfected cells
T2 sequence (P59538 1-309): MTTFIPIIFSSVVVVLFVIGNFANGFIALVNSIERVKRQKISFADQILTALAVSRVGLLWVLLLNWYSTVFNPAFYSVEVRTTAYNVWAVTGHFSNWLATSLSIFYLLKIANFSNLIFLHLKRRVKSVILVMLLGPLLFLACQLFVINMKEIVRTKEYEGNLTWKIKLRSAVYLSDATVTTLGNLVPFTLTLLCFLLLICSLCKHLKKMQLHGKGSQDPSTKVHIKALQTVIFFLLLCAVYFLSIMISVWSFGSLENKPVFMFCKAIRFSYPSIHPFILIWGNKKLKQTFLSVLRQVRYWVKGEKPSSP
Description: as §1, §2, §3, §4, §5

TAS2R38 = biological target: T3, TAS2R38 (Homo sapiens, UniProt P59533); test: Calcium fluorescence functional assay, TAS2R38 cell line; details: 20 mM tastant; cell line expressing human TAS2R38 and mouse Gα15
T3 construct: expressed in transfected cells
T3 sequence (P59533 1-333): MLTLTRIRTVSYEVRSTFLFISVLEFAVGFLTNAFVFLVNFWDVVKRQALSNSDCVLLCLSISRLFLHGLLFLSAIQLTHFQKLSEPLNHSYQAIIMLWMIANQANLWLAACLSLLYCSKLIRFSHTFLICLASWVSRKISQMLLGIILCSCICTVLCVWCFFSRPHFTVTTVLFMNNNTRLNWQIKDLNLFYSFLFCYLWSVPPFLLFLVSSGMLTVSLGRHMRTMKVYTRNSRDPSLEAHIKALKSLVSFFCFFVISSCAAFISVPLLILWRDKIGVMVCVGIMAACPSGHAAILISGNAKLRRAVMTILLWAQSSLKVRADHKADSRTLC
Description: as §1, §2, §3, §4, §5

TAS2R55 = biological target: T4, TAS2R55 (Homo sapiens, UniProt Q7RTR8); test: Calcium fluorescence functional assay, TAS2R55 cell line; details: 20 mM tastant; cell line expressing human TAS2R55 and mouse Gα15
T4 construct: expressed in transfected cells
T4 sequence (Q7RTR8 1-314): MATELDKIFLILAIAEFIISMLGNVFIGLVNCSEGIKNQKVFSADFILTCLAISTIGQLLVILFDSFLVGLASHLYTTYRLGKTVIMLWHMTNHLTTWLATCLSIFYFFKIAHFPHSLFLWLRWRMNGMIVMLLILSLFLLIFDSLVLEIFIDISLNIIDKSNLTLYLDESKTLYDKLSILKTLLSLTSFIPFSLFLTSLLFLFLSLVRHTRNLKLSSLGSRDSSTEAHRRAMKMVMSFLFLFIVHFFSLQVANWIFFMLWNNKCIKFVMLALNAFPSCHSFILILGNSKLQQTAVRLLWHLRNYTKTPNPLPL
Description: as §1, §2, §3, §4, §5

TAS2R7 = biological target: T5, TAS2R7 (Homo sapiens, UniProt Q9NYW3); test: Calcium fluorescence functional assay, TAS2R7 cell line; details: 20 mM tastant; cell line expressing human TAS2R7 and mouse Gα15
T5 construct: expressed in transfected cells
T5 sequence (Q9NYW3 1-318): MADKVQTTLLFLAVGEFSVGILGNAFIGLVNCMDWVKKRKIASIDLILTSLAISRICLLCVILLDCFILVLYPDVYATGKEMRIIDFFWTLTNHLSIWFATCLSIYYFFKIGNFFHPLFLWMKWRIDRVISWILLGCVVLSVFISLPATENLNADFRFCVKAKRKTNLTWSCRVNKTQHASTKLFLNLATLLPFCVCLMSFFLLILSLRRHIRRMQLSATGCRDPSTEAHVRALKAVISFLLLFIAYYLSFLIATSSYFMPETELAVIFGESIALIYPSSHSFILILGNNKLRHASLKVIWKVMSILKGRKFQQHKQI
Description: as §1, §2, §3, §4, §5

TAS2R41 = biological target: T6, TAS2R41 (Homo sapiens, UniProt P59536); test: Calcium fluorescence functional assay, TAS2R41 cell line; details: 20 mM tastant; cell line expressing human TAS2R41 and mouse Gα15
T6 construct: expressed in transfected cells
T6 sequence (P59536 1-307): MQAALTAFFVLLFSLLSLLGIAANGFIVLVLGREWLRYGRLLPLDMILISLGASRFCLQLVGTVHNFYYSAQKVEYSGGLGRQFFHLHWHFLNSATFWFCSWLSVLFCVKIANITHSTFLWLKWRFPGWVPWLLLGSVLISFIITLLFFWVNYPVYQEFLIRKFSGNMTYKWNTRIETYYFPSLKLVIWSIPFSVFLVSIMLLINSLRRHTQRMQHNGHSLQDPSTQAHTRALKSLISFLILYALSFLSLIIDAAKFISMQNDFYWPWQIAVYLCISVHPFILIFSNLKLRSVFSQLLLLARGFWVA
Description: as §1, §2, §3, §4, §5

SMILES | TAS2R48 bitter taste receptor activity (changes in intracellular calcium) (TAS2R48) | TAS2R44 bitter taste receptor activity (changes in intracellular calcium) (TAS2R44) | TAS2R38 bitter taste receptor activity (changes in intracellular calcium) (TAS2R38) | TAS2R55 bitter taste receptor activity (changes in intracellular calcium) (TAS2R55) | TAS2R7 bitter taste receptor activity (changes in intracellular calcium) (TAS2R7) | TAS2R41 bitter taste receptor activity (changes in intracellular calcium) (TAS2R41) | pEC50 (TAS2R44; increasing concentrations of KCl, TAS2R44 cell line (FIG. 3), read-out: EC50 value, activation of TAS2R44)
CC(O)C(=O)[O-].[K+] (stereo not shown) [Potassium lactate, potassium lactate] | did not induce | induced | did not induce | did not induce | did not induce | did not induce | –
[Cl-].[K+] [KCl, potassium chloride] | did not induce | induced | did not induce | did not induce | did not induce | did not induce | 1.82 to 2.30
CC1=CC(=O)NS(=O)(=O)O1 [Acesulfame K] | did not induce | induced | did not induce | did not induce | did not induce | did not induce | –
